According to paper PMC4715436, “The role of 2,4-dihydroxyquinoline (DHQ) in Pseudomonas aeruginosa pathogenicity” (PeerJ, 2016):

Assays:
[1] = biological target: T1, PqsR (Pseudomonas aeruginosa, UniProt Q9I4X0); test: STD-NMR titration ([…] to […] DHQ, […] SUMO-PqsR-C87); EMSA also gave an apparent Kd of […]; type: binding; parameters: gene mvfR
Target sequence in this assay (Q9I4X0 87-332): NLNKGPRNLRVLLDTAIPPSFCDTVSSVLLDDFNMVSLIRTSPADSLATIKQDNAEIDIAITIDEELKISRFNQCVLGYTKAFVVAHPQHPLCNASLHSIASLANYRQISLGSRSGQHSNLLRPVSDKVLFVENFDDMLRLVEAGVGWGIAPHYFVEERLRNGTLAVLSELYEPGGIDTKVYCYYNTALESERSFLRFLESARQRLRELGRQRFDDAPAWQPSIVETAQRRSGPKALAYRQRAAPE

[2] = system: His-SUMO-PqsR (Pseudomonas aeruginosa (PAO1?)); test: EMSA
[3] = biological target: T1, PqsR; test: EMSA with lysate of E. coli Rosetta expressing His-SUMO-PqsR and biotinylated pqsA promoter DNA, semi-quantitative apparent Kd; type: biochemical; parameters: gene mvfR; recombinant PqsR, N-terminal His-tagged SUMO fusion
Target sequence in this assay (Q9I4X0 whole entry): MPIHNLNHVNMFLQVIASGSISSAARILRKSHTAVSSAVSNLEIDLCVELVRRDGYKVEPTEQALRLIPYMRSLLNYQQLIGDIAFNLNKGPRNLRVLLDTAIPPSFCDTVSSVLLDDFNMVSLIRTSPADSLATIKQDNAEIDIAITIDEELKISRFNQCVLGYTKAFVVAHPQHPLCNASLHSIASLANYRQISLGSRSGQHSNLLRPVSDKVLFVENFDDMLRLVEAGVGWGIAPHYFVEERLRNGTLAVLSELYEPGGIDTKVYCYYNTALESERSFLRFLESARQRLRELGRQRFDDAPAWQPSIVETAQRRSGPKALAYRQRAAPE

Work on Oc1cc(O)c2ccccc2n1 [DHQ, 2,4-dihydroxyquinoline] yielded a Kd [1] of about 450 nM.
Compound Bio-pqsA (pqsA' promoter probe) has a binding signal (fraction free probe) [2] of 0.0488.
Work on CCCCCCCc1[nH]c2ccccc2c(=O)c1O [PQS, 2-heptyl-3-hydroxy-4-quinolone] yielded a Kd [3] of 33 nM.
